Results as given in patent publication US6087355A, “Cephalosporin antibiotics” (Microcide Pharmaceuticals, Inc., priority 1996, dated 2000).
Structures can show the parent of a compound that is named as a salt.

Legend:
Assay in all cases: In vitro MIC, agar dilution
Assay type in all cases: cell-based
[1] = test system: S. aureus Col(Meth^R)(lac^-); settings: Staphylococcus aureus, read-out: minimum inhibitory concentration (MIC)
Experimental: (§1) The compounds of the invention were evaluated against several β-lactamresistant (for example methicillin-resistant, vancomycin resistant, and/or ampicillin-resistant) bacteria strains by determining the minimum inhibitory concentration (MIC, μg/ml) of each compound with respect to each strain. The MIC, the lowest concentration of antibiotic which inhibits growth of the test organism, was determined by the agar dilution method.
(§2) To determine the MIC for bacterial isolates, the test compound was incorporated in a series of two-fold dilutions into liquified Mueller-Hinton agar. Upon solidification, a number of different bacterial strains were spot inoculated with a replicating device onto the agar surface.
(§3) Aliquots of antimicrobial agents were prepared in phosphate buffered saline (PBS) at pH 7.2. Tween 20 or DMSO was used as a solubilizing vehicle as needed. Standard methods of vortexing, sonicating and gentle heat were used to facilitate solubilizing the test agent. […] A 1.28 mg/mL stock solution was used with a subsequent highest working concentration of 128 μg/mL. Serial two-fold dilutions were done through ≤0.25 μg/mL. Each drug level was tested in duplicate. Two-fold drug dilutions were done in sterile 50 mL tubes with a final drug volume of 5 mL. Upon the addition of 45 mL of molten agar, a 10-fold dilution resulted. Two, 25 mL. plates were then poured into 15×150 mm square Petri plates with grids and allowed to harden.
(§4) A control plate with a reference drug, either cefotaxime, vancomycin or imipenem, was used as the positive growth control. Stock concentrations of reference antibiotics were prepared and frozen at -80° C. […] All test plates were used within 24 hours of preparation.
(§5) Satisfactory results were obtained where the inoculum contained about 10^4 colony forming units (cfu)±0.5 logs. Starting with pure cultures of the test isolates on agar plates, a few isolated colonies were transferred to a tube of nutrient broth and allowed to grow 4-6 hours at 35-36° C. to reach log-phase growth. Dropwise addition of the broth culture to PBS was done to match a 0.5 McFarland turbidity standard equal to 10^8 cfu/mL. This was further diluted ten-fold in PBS to reach a working inoculum concentration of 10^7 cfu/mL. When 1 μL of the working inoculum was applied to the agar surface a concentration of about 10^4 cfu per spot was obtained.
(§6) Disposable sterile 1 μL loops were used to inoculate test plates, with each isolate in a designated grid on the agar plate. An alternate method of inoculation involved the use of a replica plater, a device with 48 steel pins allowing the simultaneous inoculation of multiple isolates. After the spots had dried, the plates were incubated at 35-36° C. for 16-20 hours. Endpoints were assessed as the minimum inhibitory concentration (MIC) of antimicrobial agent.
The S. aureus Col strain is a high-level PBP2a producer, whereas S. aureus Col 8A, its isogenic partner, lacks PBP2a.

[2] = test system: E. faecium VanA(Van^R); settings: Enterococcus faecium, read-out: minimum inhibitory concentration (MIC)
Experimental: as §1, §2, §3, §4, §5, §6

[3] = test system: S. aureus 76(Meth^R)(lac^+); settings: Staphylococcus aureus, read-out: minimum inhibitory concentration (MIC)
Experimental: as §1, §2, §3, §4, §5, §6

[4] = test system: E. faecalis VanB(Van^R); settings: Enterococcus faecalis, read-out: minimum inhibitory concentration (MIC)
Experimental: as §1, §2, §3, §4, §5, §6

[5] = test system: E. faecalis ATCC 29212; settings: Enterococcus faecalis, ATCC29212, read-out: minimum inhibitory concentration (MIC)
Experimental: as §1, §2, §3, §4, §5, §6

[6] = test system: S. aureus ATCC 13709(Meth^S); settings: Staphylococcus aureus, ATCC13709, S. aureus ATCC 13709(Meth^S); read-out: minimum inhibitory concentration (MIC)
Experimental: as §1, §2, §3, §4, §5, §6

[7] = test system: S. haemolyticus 05(Meth^R); settings: Staphylococcus haemolyticus, read-out: minimum inhibitory concentration (MIC)
Experimental: as §1, §2, §3, §4, §5, §6

[8] = test system: S. aureus Spain #356(Meth^R); settings: Staphylococcus aureus, read-out: minimum inhibitory concentration (MIC)
Experimental: as §1, §2, §3, §4, §5, §6

[9] = test system: S. aureus PC1(Meth^S)(lac^+); settings: Staphylococcus aureus, read-out: minimum inhibitory concentration (MIC)
Experimental: as §1, §2, §3, §4, §5, §6

[10] = test system: S. aureus ATCC 33593(Meth^R); settings: Staphylococcus aureus, ATCC33593, read-out: minimum inhibitory concentration (MIC)
Experimental: as §1, §2, §3, §4, §5, §6

[11] = test system: E. coli ATCC 25992; settings: Escherichia coli, ATCC25992, read-out: minimum inhibitory concentration (MIC)
Experimental: as §1, §2, §3, §4, §5, §6

[12] = test system: E. faecium ATCC 35667; settings: Enterococcus faecium, ATCC35667, read-out: minimum inhibitory concentration (MIC)
Experimental: as §1, §2, §3, §4, §5, §6

[13] = test system: E. faecium A491(Amp^R); settings: Enterococcus faecium, read-out: minimum inhibitory concentration (MIC)
Experimental: as §1, §2, §3, §4, §5, §6

[14] = test system: S. aureus ATCC 29213; settings: Staphylococcus aureus, ATCC29213, read-out: minimum inhibitory concentration (MIC)
Experimental: as §1, §2, §3, §4, §5, §6

[15] = test system: P. aeruginosa ATCC 27853; settings: Pseudomonas aeruginosa, ATCC27853, read-out: minimum inhibitory concentration (MIC)
Experimental: as §1, §2, §3, §4, §5, §6

SMILES	MIC [1] [µg/mL]	MIC [2] [µg/mL]	MIC [3] [µg/mL]	MIC [4] [µg/mL]	MIC [5] [µg/mL]	MIC [6] [µg/mL]	MIC [7] [µg/mL]	MIC [8] [µg/mL]	MIC [9] [µg/mL]	MIC [10] [µg/mL]	MIC [11] [µg/mL]	MIC [12] [µg/mL]	MIC [13] [µg/mL]	MIC [14] [µg/mL]	MIC [15] [µg/mL]
CC(=N)NCCSCc1cnccc1SC1=C(C(=O)O)N2C(=O)[C@@H](NC(=O)/C(=N\O)c3nc(N)sc3Cl)[C@H]2SC1 [Cmpd 54, (7R)-7-[(Z)-2-(2-amino-5-chlorothiazol-4-yl)-2-(hydroxyimino)acetamido]-3-(3-(N-acetamidinoyl)aminoethylthiomethylpyrid-4-ylthio)-3-cephem-4-carboxylate, trifluoroacetic acid salt]	2	1	2	0.25	0.13	0.25	2	2	0.25	1	8	0.5	8	0.25	> 32
CC(C)(N)CSCc1cnccc1SC1=C(C(=O)O)N2C(=O)[C@@H](NC(=O)/C(=N\O)c3nc(N)sc3Cl)[C@H]2SC1 [Cmpd 62, (7R)-7-[(Z)-2-(2-amino-5-chlorothiazol-4-yl)-2-(hydroxyimino)acetamido]-3-(3-(2-amino-2-methylpropylthiomethyl)pyrid-4-ylthio)-3-cephem-4-carboxylate, trifluoroacetic acid salt]	4	2	4	0.25	0.13	0.5	4	4	0.5	4	8	1	16	0.5	> 32
N=CNCCSCc1cnccc1SC1=C(C(=O)O)N2C(=O)[C@@H](NC(=O)/C(=N\O)c3nc(N)sc3Cl)[C@H]2SC1 [Cmpd 31, (7R)-7-[(Z)-2-(2-amino-5-chlorothiazol-4-yl)-2-(hydroxyimino)acetamido]-3-(3-(N-formamidinoyl)aminoethylthiomethylpyrid-4-ylthio)-3-cephem-4-carboxylate, trifluoroacetic acid salt]	2	1	2	0.25	0.5	0.25	4	2	0.25	2	8	0.5	8	0.25	> 32
CC(N)CSCc1cnccc1SC1=C(C(=O)O)N2C(=O)[C@@H](NC(=O)/C(=N\O)c3nc(N)sc3Cl)[C@H]2SC1 (stereo partly drawn) [Cmpd 36, (7R)-7-[(Z)-2-(2-amino-5-chlorothiazol-4-yl)-2-(hydroxyimino)acetamido]-3-(3-(2-aminoprop-1-ylthiomethyl)pyrid-4-ylthio)-3-cephem-4-carboxylate, trifluoroacetic acid salt]	1	1	2	0.13	0.25	0.25	2	1	0.25	1	16	0.5	8	0.5	> 32
CNCCSCc1cnccc1SC1=C(C(=O)O)N2C(=O)[C@@H](NC(=O)/C(=N\O)c3nc(N)sc3Cl)[C@H]2SC1 [Cmpd 41, (7R)-7-[(Z)-2-(2-amino-5-chlorothiazol-4-yl)-2-(hydroxyimino)acetamido]-3-(3-(2-N-methylaminoethylthiomethyl)pyrid-4-ylthio)-3-cephem-4-carboxylate, trifluoroacetic acid salt]	1	1	1	≤ 0.06	≤ 0.06	0.13	1	1	0.25	1	4	0.25	8	0.13	32
CC(C)(CN)SCc1cnccc1SC1=C(C(=O)O)N2C(=O)[C@@H](NC(=O)/C(=N\O)c3csc(N)n3)[C@H]2SC1 [Cmpd 19, (7R)-7-[(Z)-2-(aminothiazol-4-yl)-2-(hydroxyimino)acetamido]-3-[3-(2-amino-1,1-dimethylethylthiomethyl)pyrid-4-ylthio]-3-cephem-4-carboxylate, trifluoroacetic acid salt]	8	2	8	0.5	1	0.5	16	8	0.5	8	8	1	> 32	0.5	> 32
N=C(N)SCc1cnccc1SC1=C(C(=O)O)N2C(=O)[C@@H](NC(=O)/C(=N\O)c3nc(N)sc3Cl)[C@H]2SC1 [Cmpd 60, (7R)-7-[(Z)-2-(2-amino-5-chlorothiazol-4-yl)-2-(hydroxyimino)acetamido]-3-(3-isothioureidomethylpyrid-4-ylthio)-3-cephem-4-carboxylate, trifluoroacetic acid salt]	2	2	1	0.25	0.5	0.13	4	2	0.25	2	8	1	16	0.25	> 32
CC(N)COCc1cnccc1SC1=C(C(=O)O)N2C(=O)[C@@H](NC(=O)/C(=N\O)c3nc(N)sc3Cl)[C@H]2SC1 (stereo partly drawn) [Cmpd 49, (7R)-7-[(Z)-2-(2-amino-5-chlorothiazol-4-yl)-2-(hydroxyimino)acetamido]-3-(3-(2-aminopropyloxymethyl)pyrid-4-ylthio)-3-cephem-4-carboxylate, trifluoroacetic acid salt]	2	2	2	0.13	0.13	0.25	4	2	0.5	2	8	1	16	0.25	> 32
CN(C)C(=O)CNCCSCc1cnccc1SC1=C(C(=O)O)N2C(=O)[C@@H](NC(=O)/C(=N\O)c3nc(N)sc3Cl)[C@H]2SC1 [Cmpd 61, (7R)-7-[(Z)-2-(2-amino-5-chlorothiazol-4-yl)-2-(hydroxyimino)acetamido]-3-(3-(N,N-dimethylcarboxamidomethylaminoethylthiomethyl)pyrid-4-ylthio)-3-cephem-4-carboxylate, trifluoroacetic acid salt]	4	2	4	0.25	0.25	1	8	4	1	4	16	1	16	1	> 32
